Cn1nccc1O
solubility (mole fraction)
Details | 278.15 K | 283.15 K | 288.15 K | 293.15 K | 298.15 K | 303.15 K | 308.15 K | 313.15 K | 318.15 K
in ethanol | 0.0822 | 0.0959 | 0.112 | 0.129 | 0.149 | 0.171 | 0.194 | 0.216 | 0.247
in ethyl acetate | 0.000394 | 0.000668 | 0.00119 | 0.00222 | 0.00348 | 0.00603 | 0.00922 | 0.0154 | 0.0245
in isobutanol | 0.1 | 0.118 | 0.138 | 0.161 | 0.183 | 0.208 | 0.242 | 0.272 | 0.308
in isopropanol | 0.079 | 0.0911 | 0.106 | 0.122 | 0.141 | 0.162 | 0.186 | 0.209 | 0.24
in methanol | 0.0905 | 0.107 | 0.126 | 0.146 | 0.172 | 0.201 | 0.234 | 0.266 | 0.308
in methyl acetate | 0.00741 | 0.00888 | 0.0109 | 0.0128 | 0.0156 | 0.0187 | 0.0217 | 0.0258 | 0.0312
in n-butanol | 0.0789 | 0.09 | 0.105 | 0.121 | 0.139 | 0.159 | 0.177 | 0.2 | 0.231
in n-butyl acetate | 0.000681 | 0.00102 | 0.00149 | 0.00216 | 0.00302 | 0.00433 | 0.00601 | 0.00846 | 0.0125
in n-pentyl acetate | 0.00428 | 0.00553 | 0.00705 | 0.0087 | 0.011 | 0.0138 | 0.0169 | 0.0201 | 0.0261
in n-propanol | 0.0801 | 0.0922 | 0.109 | 0.127 | 0.143 | 0.165 | 0.185 | 0.211 | 0.245
in n-propyl acetate | 0.000277 | 0.0005 | 0.000774 | 0.00138 | 0.00218 | 0.0032 | 0.00511 | 0.00843 | 0.0124
in sec-butanol | 0.0889 | 0.101 | 0.117 | 0.135 | 0.154 | 0.173 | 0.195 | 0.219 | 0.251
